Legend:
Test in all cases: Dose-response curves and IC50, PrestoBlue cell viability, 72 h
Type in all cases: cell-based, human
[1] = test system: A375-XP cells (Vemurafenib-resistant); settings: n.e. = did not suppress growth below 50% in the tested concentration range; for IC50: Homo sapiens, read-out: Half-maximal inhibitory concentration value (IC50), Mean
[2] = test system: A375-GP cells (Dabrafenib-resistant); settings: n.e. = did not suppress growth below 50% in the tested concentration range; for IC50: Homo sapiens, read-out: Half-maximal inhibitory concentration value (IC50), Mean
[3] = test system: A375 cells (parental); settings: for IC50: Homo sapiens, A-375, n.e. = did not suppress growth below 50% in the tested concentration range, read-out: Half-maximal inhibitory concentration value (IC50), Mean; for Half-maximal inhibitory concentration value (IC50), Mean: n.e. = did not suppress growth below 50% in the tested concentration range

Row | Structure (SMILES) | IC50 [1] [µM] | IC50 [2] [µM] | IC50 [3] [µM] | Half-maximal inhibitory concentration value (IC50), Mean [1] | Half-maximal inhibitory concentration value (IC50), Mean [2] | Half-maximal inhibitory concentration value (IC50), Mean [3]
1 | CNC(=O)c1cc(Oc2ccc(NC(=O)Nc3ccc(Cl)c(C(F)(F)F)c3)c(F)c2)ccn1 [Regorafenib] | 1.71 | 0.701 | 2.73 |  |  | 
2 | CC(=O)c1c(C)c2cnc(Nc3ccc(N4CCNCC4)cn3)nc2n(C2CCCC2)c1=O [Palbociclib] | 4.99 | 2.21 | 5.32 |  |  | 
3 | C[C@]1(O)C[C@@H](c2nc(-c3ccc4ccc(-c5ccccc5)nc4c3)c3c(N)nccn32)C1 [Linsitinib] | 2.94 | 2.08 | 4.17 |  |  | 
4 | Cn1cnc2c(F)c(Nc3ccc(Br)cc3Cl)c(C(=O)NOCCO)cc21 [AZD6244] |  |  |  | n.e. | n.e. | n.e.
5 | CCN(CCCOc1ccc2c(Nc3cc(CC(=O)Nc4cccc(F)c4)n[nH]3)ncnc2c1)CCOP(=O)(O)O [Barasertib] |  |  |  | n.e. | n.e. | n.e.
